Patent publication US6169181A, “Compounds useful to treat retroviral infections” (Pharmacia & Upjohn Company, priority 1998, dated 2001)
Where “and” joins values, the source holds several entries; their conditions need not be identical. Identical values can stand only once. Like-named read-outs stand apart in the source and are kept apart here.

Key:
[1] = biological target: HIV-1 protease (Human immunodeficiency virus type 1 group M subtype B, UniProt P04585); assay: biochemical
In short: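 Percent inhibition came from fluorescence of FITC-tagged cleavage product, separated by filtration from uncleaved substrate captured on streptavidin-coated beads. The enzyme (10 μl of 0.1 μM) and compound acted on a biotin/FITC dual-labelled peptide for one hour at room temperature in the dark. The reaction ran in 0.1 M sodium acetate, pH 5.5, with 1.0 M NaCl and 0.05% NP-40.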

[2] = biological target: T1, single chain tethered (tandem) HIV protease (HIV-1 M:B_HXB2R, UniProt P04585); assay: Tandem HIV protease assay; assay type: biochemical; conditions: read-out: FITC KI; Table II; enzyme HIV1TANDEM
T1 construct: purified enzyme, FITC/biotin substrate assay
Method: In the enzyme inhibition assay described above, the sensitivity of Ki value determination is in part limited by the ability to continue to lower the enzyme concentration for compounds with high binding affinity. To prevent de-dimerization at low enzyme concentration, a tandemly linked enzyme is prepared in which the two monomers are covalently linked by an appropriate stretch of amino acid residues. Using the latter enzyme, the sensitivity of the inhibition assay is improved since much lower enzyme concentration can be utilized, as compared to the condition using the wild-type enzyme.
The starting inhibitor concentrations are determined based on preliminary enzyme inhibition screening results which estimate the expected potency of the inhibitor. Inhibitor concentrations are then prepared using the Biomek 1000 (Beckman) and the Quadra 96 (Tomtec). Substrate (biotinylated at the amino terminal arginine and fluorescently labeled with fluorescein at the carboxyl terminal lysine), inhibitor and the tandem enzyme are allowed to react in solution at pH 5.5 (buffers identical to those used with the native dimeric enzyme) in the dark for 96 hours. Streptavidin coated polystyrene beads are added to stop the reaction. The labeled cleavage product is separated from unreacted substrate via filtration. Residual fluorescence is quantitated with the Idexx SM2000 (Idexx) and the resulting data are analyzed using the NLLSF program.

[3] = Table II, enzyme HIV-1, DOSE 0.123 (unit not given)
[4] = Table II, enzyme HIV-1, DOSE 0.370 (unit not given)
[5] = Table II, enzyme HIV-1, DOSE 1.100 (unit not given)
[6] = Table II, enzyme HIV-1, DOSE 3.300 (unit not given)
[7] = Table II, enzyme HIV-1, DOSE 10.000 (unit not given)
[8] = Table II, enzyme HIV-1, DOSE 30.000 (unit not given)

| Compound | PROTEASE % INHIB. [1, 3] [%] | PROTEASE % INHIB. [1, 4] [%] | PROTEASE % INHIB. [1, 5] [%] | PROTEASE % INHIB. [1, 6] [%] | PROTEASE % INHIB. [1, 7] [%] | PROTEASE % INHIB. [1, 8] [%] | Ki [2] [pM] | PROTEASE % INHIB. [1] |
| --- | --- | --- | --- | --- | --- | --- | --- | --- |
| CCC[C@@]1(CCc2ccccc2)CC(O)=C([C@H](CC)c2cccc(NS(=O)(=O)c3ccc(N)cn3)c2)C(=O)O1 (single isomer, unassigned) [Example 315, 5-Amino-N-[3(R or S)-(1-[5,6-dihydro-4-hydroxy-2-oxo-6(R or S)-(2-phenylethyl)-6-propyl-2H-pyran-3-yl]propyl)phenyl]-2-pyridinesulfonamide] | 79.95 | 87.25 | 88.08 | 97.03 | 100.2 | 106.4 | 29 | – |
| CCC[C@@]1(CCc2ccc(F)cc2)CC(O)=C([C@@H](c2cccc(NS(=O)(=O)c3ccc(C#N)cn3)c2)C(C)(C)C)C(=O)O1 (single isomer, unassigned) [Example 345, N-[3-{1(R or S)-(4-Hydroxy-5,6-dihydro-2-oxo-6(R or S)-(2-(4-fluorophenyl)ethyl)-6-propyl-2H-pyran-3-yl)-2,2-dimethyl-propyl}phenyl]-5-cyanopyridine-2-sulfonamide] | 69.19 | 94.37 | 101.67 | 99.08 | 97.43 | 84.56 | 32 | – |
| Cn1cnc(S(=O)(=O)Nc2cccc(C(C3=C(O)CC(CCc4ccccc4)(CCC(F)(F)F)OC3=O)C(C)(C)C)c2)c1 (single isomer, unassigned) [Example 270, N-[3-(R or S)-[1-[5,6-dihydro-4-hydroxy-2-oxo-6-(R or S)-(2-phenethyl)-6-(3,3,3-trifluoropropyl)-2H-pyran-3-yl]-2,2-dimethylpropyl]phenyl]-1-methyl-1H-imidazole-4-sulfonamide] | 75.26 | 85.62 | 93.45 | 96.62 | 94.57 | 82.67 | 24 | – |
| CCC[C@]1(CCc2ccccc2)CC(O)=C([C@@H](CC)c2cccc(NS(=O)(=O)c3ccc(C#N)cn3)c2)C(=O)O1 (single isomer, unassigned) [Example 338, N-[3-{1(S or R)-(4-Hydroxy-5,6-dihydro-2-oxo-6(S or R)-phenethyl-6-propyl-2H-pyran-3-yl)propyl]phenyl]-5-cyano-pyridine-2-sulfonamide] | – | – | – | – | – | – | 100 | 61.74 and 85.32 and 80.46 and 89.62 and 83.53 and 62.34 |
| CCC[C@@]1(CCc2ccccc2)CC(O)=C([C@@H](c2cccc(NS(=O)(=O)c3cn(C)cn3)c2)C(C)(C)C)C(=O)O1 (single isomer, unassigned) [Example 308, N-[3(R or S)-[1-(5,6-Dihydro-4-hydroxy-2-oxo-6(R or S)-[2-phenylethyl]-6-propyl-2H-pyran-3-yl)-2,2-dimethylpropyl]phenyl]-1-methyl-1H-imidazole-4-sulfonamide] | 75.06 | 108.14 | 95.01 | 108.43 | 110.75 | 96.28 | 74 | – |
| CCCC1(CCC)CC(O)=C(C(c2cccc(NS(=O)(=O)c3ccc(C(F)(F)F)cn3)c2)C(C)(C)C)C(=O)O1 (single isomer, unassigned) [Example 285, 5-Trifluoromethyl-N-[3-(R or S)-[1-[4-hydroxy-2-oxo-6,6-di-n-propyl-5,6-dihydro-2H-pyran-3-yl]-2,2-dimethylpropyl]-phenyl]-2-pyridinesulfonamide] | 81.8 | 95.8 | 99.11 | 109.33 | 104.61 | 86.84 | 15 | – |
| CC(C)(C)C(C1=C(O)C2CCCCCCC2OC1=O)c1cccc(NS(=O)(=O)c2ccc(C#N)cn2)c1 (stereo not shown) [Example 373, 5-Cyano-N-[3-[2,2-dimethyl-1-(4a,5,6,7,8,9,10,10a-octahydro-4-hydroxy-2-oxo-2H-cycloocta[b]pyran-3-yl)propyl]phenyl]-2-pyridinesulfonamide] | 90.71 | 90.35 | 103.83 | 88.72 | 85.75 | 89.53 | 200 | – |
| CCC[C@]1(CCc2ccccc2)CC(O)=C([C@@H](CC)c2cccc(NS(=O)(=O)c3cn(C)cn3)c2)C(=O)O1 (single isomer, unassigned) [Example 342, N-[3-{1(S or R)-(4-Hydroxy-5,6-dihydro-2-oxo-6(S or R)-phenethyl-6-propyl-2H-pyran-3-yl)propyl}phenyl]-1-methyl-1H-imidazole-4-sulfonamide] | – | – | – | – | – | – | 309 | 81.06 and 93.18 and 96.94 and 85.55 and 73.55 and 73.95 |
| CC(C)(C)C(C1=C(O)CC(CCc2ccccc2)(CCc2ccccc2)OC1=O)c1cccc(NS(=O)(=O)c2ccc(N)cn2)c1 (single isomer, unassigned) [Example 356, N-[3-{1(S or R)-(4-Hydroxy-5,6-dihydro-2-oxo-6,6-bis(2-phenyl-ethyl)-2H-pyran-3-yl)-2,2-dimethylpropyl}phenyl]-5-amino-pyridine-2-sulfonamide] | 54.96 | 71.75 | 90.19 | 92.28 | 100.22 | 95.16 | 1100 | – |
| Cn1cnc(S(=O)(=O)Nc2cccc(C(C3=C(O)CC(CCc4ccccc4)(CCC(F)(F)F)OC3=O)C(C)(C)C)c2)c1 (single isomer, unassigned) [Example 273, N-[3-(R or S)-[1-[5,6-dihydro-4-hydroxy-2-oxo-6-(R or S)-(2-phenethyl)-6-(3,3,3-trifluoropropyl)-2H-pyran-3-yl]-2,2-dimethylpropyl]phenyl]-1-methyl-1H-imidazole-4-sulfonamide] | < 10 | 23.24 | 75.38 | 94.63 | 95.93 | 91 | 2300 | – |
| Cn1cnc(S(=O)(=O)Nc2cccc(C(C3=C(O)CC(CCc4ccccc4)(CCC(F)(F)F)OC3=O)C(C)(C)C)c2)c1 (single isomer, unassigned) [Example 276, N-[3-(R or S)-[1-[5,6-dihydro-4-hydroxy-2-oxo-6-(R or S)-(2-phenethyl)-6-(3,3,3-trifluoropropyl)-2H-pyran-3-yl]-2,2-dimethylpropyl]phenyl]-1-methyl-1H-imidazole-4-sulfonamide] | 16.49 | 38.95 | 66.1 | 90.01 | 90.97 | 87.6 | 33000 | – |
| CCC[C@@]1(CCc2ccc(F)cc2)CC(O)=C([C@@H](c2cccc(NS(=O)(=O)c3ccc(N)cn3)c2)C(C)(C)C)C(=O)O1 (single isomer, unassigned) [Example 316, 5-Amino-N-[3(R or S)-(1-[6(R or S)-(2-[4-fluorophenyl]ethyl)-5,6-dihydro-4-hydroxy-2-oxo-6-propyl-2H-pyran-3-yl]-2,2-dimethyl-propyl)phenyl]-2-pyridine-sulfonamide] | 75.49 | 85.02 | 100.32 | 95.46 | 99.71 | 87.91 | 357 | – |
| CCC[C@@]1(CCc2ccccc2)CC(O)=C([C@H](CC)c2cccc(NS(=O)(=O)c3ccc(N)cn3)c2)C(=O)O1 (single isomer, unassigned) [Example 314, 5-Amino-N-[3(R or S)-(1-[5,6-dihydro-4-hydroxy-2-oxo-6(R or S)-(2-phenylethyl)-6-propyl-2H-pyran-3-yl]propyl)phenyl]-2-pyridinesulfonamide] | 82.92 | 96.14 | 114.86 | 100.76 | 88.75 | 73.42 | 700 | – |
| CCCC1(CCC)CC(O)=C(C(c2cccc(NS(=O)(=O)c3cn(C)cn3)c2)C(C)(C)C)C(=O)O1 (single isomer, unassigned) [Example 319, N-[3(R or S)-(1-[5,6-Dihydro-6,6-dipropyl-4-hydroxy-2-oxo-2H-pyran-3-yl]-2,2-dimethylpropyl)-phenyl]-1-methyl-1H-imidazole-4-sulfonamide] | 10.75 | 32.65 | 60.14 | 75.86 | 93.46 | 74.48 | 29500 | – |
